# According to patent US20100311581A1, “Azolylmethyloxiranes, use Thereof and Agents Containing the Same” (BASF SE, priority 2007, published 2010):
# Like-named read-outs stand apart in the source and are kept apart here.
# Key:
# Septoria tritici = experiment: Activity against Septoria leaf blotch Septoria tritici in the microtiter test (Septtr); type: cell-based
# Pyriculana oryzae = type: cell-based
# Leptosphaeria nodorum = experiment: Activity against glume blotch Leptosphaeria nodorum in the microtiter test (Leptno); type: cell-based
# Phakopsora pachyrhizi = experiment: Curative activity against soya rust caused by Phakopsora pachyrhizi (Phakpa K1), greenhouse; type: in vivo; details: curative spray on soya seedlings, visual rating after 14 days in greenhouse, untreated 90% attack
# [1] = Comparison tests, microtiter test
# [2] = microtiter plate, 7th day after inoculation, 405 nm, relative to active compound-free control (100%)
# [3] = Comparison tests, 31 ppm, microtiter test
# [4] = 31 ppm, microtiter plate, seventh day after inoculation, 405 nm, relative to active compound-free control (=100%)
compound,measurement,setting,value
"Fc1cccc([C@@]2(Cn3nc[nH]c3=S)O[C@@H]2c2ccccc2Cl)c1 (relative stereo) [Example 1, 1-[rel-(2S,3R)-3-(2-chlorophenyl)-2-(3-fluorophenyl)oxiran-2-ylmethyl]-1H-1,2,4-triazole-5(4H)-thione]",Growth in % at 31 ppm with Septtr,Septoria tritici; [1],21%
same,Growth in % at 31 ppm with Septtr,Septoria tritici; [2],21%
"CSc1ncnn1C[C@]1(c2ccc(F)cc2)O[C@@H]1c1ccccc1F [WO9638440, p. 17 (4th compound),]",Growth in % at 31 ppm with Pyrior,Pyriculana oryzae; [3],100%
"Cc1ccccc1[C@H]1O[C@]1(Cn1nc[nH]c1=S)c1cccc(F)c1 (relative stereo) [Example 3, 1-[rel-(2S,3R)-2-(3-fluorophenyl)-3-o-tolyloxiran-2-ylmethyl]-1H-1,2,4-triazole-5(4H)-thione]",Growth in % at 31 ppm with Septtr,Septoria tritici; [2],11%
"COC(=O)Sc1ncnn1CC1(c2ccc(F)cc2)OC1c1ccccc1Cl (stereo not shown) [WO9742178, p. 55 (4th compound)]",Growth in % at 31 ppm with Septtr,Septoria tritici; [1],100%
same,Growth in % at 31 ppm with Leptno,Leptosphaeria nodorum; [1],100%
"N#CSc1ncnn1C[C@]1(c2cccc(F)c2)O[C@@H]1c1ccccc1Cl (relative stereo) [Example 9, 1-[rel-(2S,3R)-3-(2-chlorophenyl)-2-(3-fluorophenyl)oxiran-2-ylmethyl]-5-thiocyanato-1H-1,2,4-triazole]",Growth in % at 31 ppm with Septtr,Septoria tritici; [2],49%
"CSc1ncnn1C[C@]1(c2cccc(F)c2)O[C@@H]1c1ccccc1C (relative stereo) [Example 5, 1-rel-[(2S,3R)-2-(3-fluorophenyl)-3-o-tolyloxiran-2-ylmethyl]-5-(methylthio)-1H-1,2,4-triazole]",Growth in % at 31 ppm with Pyrior,Pyriculana oryzae; [4],0%
"COC(=O)Sc1ncnn1C[C@]1(c2cccc(F)c2)O[C@@H]1c1ccccc1Cl (relative stereo) [Example 12, methyl {2-[rel-(2S,3R)-3-(2-chlorophenyl)-2-(3-fluorophenyl)-oxiranylmethyl]-2H-[1,2,4]triazole-3-yl}thiocarbonate]",Growth in % at 31 ppm with Septtr,Septoria tritici; [1],25%
same,Growth in % at 31 ppm with Leptno,Leptosphaeria nodorum; [1],0%
same,Growth in % at 31 ppm with Leptno,"Leptosphaeria nodorum; microtiter plate, 7th day after inoculation, 405 nm, relative to active compound-free control",0%
"CSc1ncnn1C[C@]1(c2cccc(F)c2)O[C@@H]1c1ccccc1F (relative stereo) [Example 4, 1-[rel-(2S,3R)-3-(2-fluorophenyl)-2-(3-fluorophenyl)oxiran-2-ylmethyl]-5-(methylthio)-1H-1,2,4-triazole]",Growth in % at 31 ppm with Pyrior,Pyriculana oryzae; [4],0%
same,Growth in % at 31 ppm with Pyrior,Pyriculana oryzae; [3],0%
"CCOP(=S)(OCC)Sc1ncnn1C[C@]1(c2cccc(F)c2)O[C@@H]1c1ccccc1Cl (relative stereo) [Example 10, S-1-[rel-(2S,3R)-3-(2-chlorophenyl)-2-(3-fluorophenyl)oxiran-2-ylmethyl]-1H-1,2,4-triazole-5-yl O,O-diethyl phosphorodithioate]",Growth in % at 31 ppm with Pyrior,Pyriculana oryzae,0%
Fc1ccccc1[C@@]1(Cn2nc[nH]c2=S)O[C@@H]1c1ccccc1Cl,Growth in % at 31 ppm with Septtr,Septoria tritici; [1],58%
"CSc1ncnn1C[C@]1(c2cccc(F)c2)O[C@@H]1c1ccccc1Cl (relative stereo) [Example 6, 1-[rel-(2S,3R)-3-(2-chlorophenyl)-2-(3-fluorophenyl)oxiran-2-ylmethyl]-5-(methylthio)-1H-1,2,4-triazole]",Attack in % at 600 ppm with Phakpa K1,Phakopsora pachyrhizi,0%
